One compound from publication PMC4220016, “The binding characteristics and orientation of a novel radioligand with distinct properties at 5-HT3A and 5-HT3AB receptors” (Neuropharmacology, 2014) can be followed below.

Several values for one entry are separate records, joined by “and”; a condition that tells them apart may be missing. Equal values may be shown once. Read-outs that look alike come from different tables or passages of the source.

In one assay the target is T1, 5-HT3A receptor K112C (Homo sapiens, UniProt P46098, K107C).
T1 construct: expressed in transfected cells; host or cells: HEK 293
T1 sequence (P46098 24-478 K107C): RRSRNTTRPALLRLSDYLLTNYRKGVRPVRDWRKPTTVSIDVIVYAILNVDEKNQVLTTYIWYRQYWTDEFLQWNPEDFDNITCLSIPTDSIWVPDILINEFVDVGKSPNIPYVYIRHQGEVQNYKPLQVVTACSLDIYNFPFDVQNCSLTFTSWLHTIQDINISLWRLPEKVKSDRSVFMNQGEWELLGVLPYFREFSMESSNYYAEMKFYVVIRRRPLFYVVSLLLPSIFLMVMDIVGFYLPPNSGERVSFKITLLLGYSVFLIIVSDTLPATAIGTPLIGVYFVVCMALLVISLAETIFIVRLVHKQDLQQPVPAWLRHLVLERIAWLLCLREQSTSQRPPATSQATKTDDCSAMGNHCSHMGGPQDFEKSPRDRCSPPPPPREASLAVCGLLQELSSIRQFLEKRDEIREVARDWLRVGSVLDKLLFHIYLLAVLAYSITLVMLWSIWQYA
As to the kind of experiment: Saturation binding of [^3H]VUF10166 at 5-HT3A receptor mutant. To be noted: K112C; read-out: Kd (nM) Mean ± SEM. As for the experimental part: (§1) Mutagenesis was performed using the QuikChange method (Agilent Technologies Inc., California, USA) on human 5-HT3A cDNA (accession number: P46098) cloned into pcDNA3.1 (Invitrogen, Paisley, UK). Cysteine residues were substituted for amino acids throughout each of the binding loops A–E (Fig. 1). To facilitate comparisons with previous work, we use the numbering of the equivalent residues in the mouse 5-HT3A subunit; for human numbering 5 should be subtracted from each residue number.
(§2) All data were analysed using GraphPad Prism 4.03.

The next assay concerns the target T2, 5-HT3A receptor T179C (Homo sapiens, UniProt P46098, T174C).
T2 construct: expressed in transfected cells; host or cells: HEK 293
The description is as above. To be noted: Loop B, read-out: Kd (nM) Mean ± SEM. As for the experimental part:
as §1, §2

The next assay addresses T3, 5-HT3A receptors (Homo sapiens, UniProt P46098).
T3 sequence (P46098 24-478): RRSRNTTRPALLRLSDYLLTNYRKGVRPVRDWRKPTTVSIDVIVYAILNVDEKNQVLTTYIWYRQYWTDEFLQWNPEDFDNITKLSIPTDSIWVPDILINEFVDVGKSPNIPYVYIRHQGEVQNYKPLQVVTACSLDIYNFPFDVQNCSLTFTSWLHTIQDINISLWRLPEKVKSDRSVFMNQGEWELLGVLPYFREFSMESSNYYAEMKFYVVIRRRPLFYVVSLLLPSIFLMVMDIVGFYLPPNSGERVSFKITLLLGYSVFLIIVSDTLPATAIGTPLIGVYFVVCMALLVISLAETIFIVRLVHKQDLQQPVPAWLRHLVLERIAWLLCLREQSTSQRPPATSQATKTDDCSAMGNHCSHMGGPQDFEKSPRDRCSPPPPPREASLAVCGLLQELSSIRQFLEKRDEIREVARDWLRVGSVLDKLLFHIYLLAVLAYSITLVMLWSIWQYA
As to the kind of experiment: biochemical. Further details: expressed in transfected cells; host or cells: HEK 293. The assay is classed as binding.

A further assay addresses T4, 5-HT3AB receptors (Homo sapiens, UniProt O95264+P46098).
T4 sequence (P46098 24-478): T3 sequence (P46098 24-478)
T4 sequence (O95264 22-441): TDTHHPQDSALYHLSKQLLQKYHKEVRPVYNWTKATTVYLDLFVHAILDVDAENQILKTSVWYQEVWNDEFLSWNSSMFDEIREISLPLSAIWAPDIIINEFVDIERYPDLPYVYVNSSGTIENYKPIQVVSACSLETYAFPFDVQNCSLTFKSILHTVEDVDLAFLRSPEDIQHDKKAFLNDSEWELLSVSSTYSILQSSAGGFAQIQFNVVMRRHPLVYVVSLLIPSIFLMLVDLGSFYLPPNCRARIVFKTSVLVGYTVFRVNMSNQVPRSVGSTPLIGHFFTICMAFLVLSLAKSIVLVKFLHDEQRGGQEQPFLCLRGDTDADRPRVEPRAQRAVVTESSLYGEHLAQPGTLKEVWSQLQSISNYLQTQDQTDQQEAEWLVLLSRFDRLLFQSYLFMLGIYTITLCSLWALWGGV
As to the kind of experiment: Kinetic measurements (association, dissociation) at 5-HT3AB receptors. The assay is classed as binding. Further details: expressed in transfected cells; host or cells: HEK 293. Conditions: from kinetic rates, Equ (4), read-out: Kd(nM) (kon/koff).

T2 sequence (P46098 24-478 T174C): as the sequence (P46098 24-478 K107C) above, with C84K, T151C counted along it

On to `CN1CCN(c2nc3ccccc3nc2Cl)CC1` [[^3H]VUF10166] [2-chloro-3-(4-[^3H]methylpiperazin-1-yl)quinoxaline], for which the Kd at 5-HT3A receptor K112C was 0.13 ± 0.03 nM; on 5-HT3A receptor T179C, above 10 nM; on 5-HT3A receptors (5-HT3A, tritiated ligand, transfected HEK 293 cells, 0 °C, read-out: Kd (nM) saturation), 0.18 nM; on 5-HT3A receptors (Wild Type, Table 5 series, read-out: Kd (nM) Mean ± SEM) it was 0.21 ± 0.04 nM; at 5-HT3AB receptors (first component), 0.38 nM; at 5-HT3AB receptors (second component (>3 nM)) it was 22 nM and 22.4 nM.
